# Measurements as given in patent US10238633B2, “Methods for treating pulmonary emphysema using substituted 2-Aza-bicyclo[2.2.1]heptane-3-carboxylic acid (benzyl-cyano-methyl)-amides inhibitors of Cathepsin C” (Boehringer Ingelheim International GmbH, priority 2013, dated 2019).
# Tests used:
# [1] = Determination of metabolic stability with human liver microsomes; details: pooled human liver microsomes, 37° C., test compound 1 μM, NADPH
# Description: Determination of Metabolic Stability with Human Liver Microsomes
# The metabolic degradation of the test compound is assayed at 37° C. with pooled human liver microsomes. The final incubation volume of 100 μl per time point contains TRIS buffer pH 7.6 (0.1 M), magnesium chloride (5 mM), microsomal protein (1 mg/ml) and the test compound at a final concentration of 1 μM. Following a short preincubation period at 37° C., the reactions are initiated by addition of beta-nicotinamide adenine dinucleotide phosphate, reduced form (NADPH, 1 mM) and terminated by transferring an aliquot into acetonitrile after different time points. Additionally, the NADPH-independent degradation is monitored in incubations without NADPH, terminated at the last time point. The [%] remaining test compound after NADPH independent incubation is reflected by the parameter c(control) (metabolic stability). The quenched incubations are pelleted by centrifugation (10,000 g, 5 min). An aliquot of the supernatant is assayed by LC-MS/MS for the amount of parent compound.
# The half-life (t1/2 INVITRO) is determined by the slope of the semilogarithmic plot of the concentration-time profile. The intrinsic clearance (CL_[sequence]) is calculated by considering the amount of protein in the incubation: CL_[sequence] [μl/min/mg protein]=(In 2/(half-life [min]*protein content [mg/ml]))*1,000.
# [2] = tested on: Neutrophil elastase activity in U937 cells; test: Determination of neutrophil elastase activity in U937 cytosolic lysate preparation after incubation with test compound; format: cell-based; details: Homo sapiens, U-937, read-out: Reduction of NE-activity in U937 cells IC50
# Description: Determination of Neutrophil Elastase Activity in U937 Cytosolic Lysate Preparation after Incubation with Test Compound
# Optiplate 384F were purchased from PerkinElmer (Prod. No. #6007270). 24 well Nunclon cell culture plates (No. 142475) and 96 well plates (No. 267245) were from Nunc. Dimethylsulfoxid (DMSO) was from Sigma (Prod. No. D8418). Nonidet-P40 (NP40) was from USBiological (Prod. No. N3500)
# Substrate, specific for Neutrophil elastase, was from Bachem (MeOSuc-Ala-Ala-Pro-Val-AMC; Prod. No. 1-1270).
# Human neutrophil elastase was from Calbiochem (Prod. No. 324681)
# Tris-buffer (100 mM Tris; 1M NaCL; pH 7.5)
# Tris-buffer+HSA 0.1%; Human Serum Albumin from Calbiochem (Cat#. 126658)
# Serine-protease buffer (20 mM Tris; 100 mM NaCL; pH 7.5)+0.1% HSA
# Serine protease lysis buffer: 20 mM Tris-HCL; 100 mM NaCl pH 7.5; +0.2% Nonidet-P40;
# PBS: phosphate buffered saline, without Ca and Mg, from Gibco
# U937 from ECACC (Cat. No. 85011440) cultured in suspension at 37° C. and 5% CO2.
# Cell density: 0.2-1 Mio. Cells/ml.
# Medium: RPMI1640 GlutaMAX (No. 61870) with 10% FCS from Gibco
# Cell Seeding and Treatment:
# Compounds in 100% DMSO were diluted in Medium (—FCS) with 10% DMSO and further diluted according to the experiment planned.
# 20 μl of the compound solution was transferred in the respective wells of the 24 well plate and diluted with 2 ml cell suspension/well containing […] (final concentration of DMSO=0.1%). Compound dilution factor=100
# Compounds (up to 7 concentrations) were tested in triplicates with 3 wells for the DMSO 0.1% control, incubated for 48 hours without medium change at 37° C., 5% CO2 and 95% relative humidity.
# Cell Harvesting and Cell Lysate:
# Transfer the cell suspension in 2.2 ml Eppendorf cups. Separate cells from medium by centrifugation (400×g; 5 min; RT); discard the supernatant. Resuspend in 1 ml PBS; centrifugation (400×g; 5 min; RT); wash cells twice with PBS. Add 100 μl Serin lysis buffer (ice cold) to the cell pellet; resuspend the pellet and store on ice for 15 minutes. Remove debris by centrifugation at 15000×g for 10 min at 4° C. Transfer 80-100 μl lysate supernatant in 96 well plate and store immediately at −80° C.
# Neutrophil Elastase Activity Assay:
# Frozen lysates were thawn at 37° C. for 10 minutes and stored on ice. Protein content was determined with Bradford protein assay. Lysates were diluted to 0.2-0.5 mg/ml protein in serine protease buffer+HSA.
# Standard: NE (100 μg/ml stock solution in Tris-buffer; stored at −80° C.) was diluted in Tris-buffer+HSA to 750 ng/ml, and further serially diluted 1:2 for the standard curve.
# Buffer, blank, standard and lysate samples were transferred into 384 well plate
# Blank: 5 μl Tris-buffer+10 μl Tris-buffer+HSA+5 μl Substrate
# Standard: 5 μl Tris-buffer+10 μl NE (diff. conc.)+5 μl Substrate
# Lysate: 5 μl Tris-buffer+10 μl Lysat+[…] Substrate
# The increase in fluorescence (Ex360 nm/Em 460 nm) is determined over 30 minutes with a Molecular Device Spectramax M5 Fluorescence Reader. Kinetic Reduction (Vmax units/sec); 4 vmax points. The amount of neutrophil elastase (ng/ml) is calculated using the standard curve and the Spectramax software. The result is interpolated to ng/mg lysate protein using excel formula functions. […] IC50 is calculated using Graphpad Prism; nonlinear fitting (log(inhibitor) vs. response—Variable slope).
SMILES,In vitro stability in human liver microsome incubations t½ [1] [h],IC50 [2] [nM]
CN1C(=O)Cc2ccc(-c3ccc(CC(C#N)NC(=O)[C@H]4N[C@@H]5CC[C@H]4C5)c(F)c3)cc21 (some centres unmarked) [Example 15],2.17,–
N#CC(Cc1ccc(-c2cnn(-c3ccccc3)c2)cc1F)NC(=O)[C@H]1N[C@@H]2CC[C@H]1C2 (some centres unmarked) [Example 78],2.17,–
CS(=O)(=O)c1cc(OCC(F)(F)F)cc(-c2ccc(C[C@@H](C#N)NC(=O)[C@H]3N[C@@H]4CC[C@H]3C4)c(F)c2)c1 [Example 276],2.17,–
N#C[C@H](Cc1ccc(-c2csc(C(=O)N3CCN(C4CC4)CC3)c2)cc1F)NC(=O)[C@H]1N[C@@H]2CC[C@H]1C2 [Example 229],–,2.9
CS(=O)(=O)c1ccc(-c2ccc(C[C@@H](C#N)NC(=O)[C@H]3N[C@@H]4CC[C@H]3C4)c(F)c2)cc1OCC(F)F [Example 252],2.17,–
CN(C)CCCN1C(=O)Cc2ccc(-c3ccc(C[C@@H](C#N)NC(=O)[C@H]4N[C@@H]5CC[C@H]4C5)c(F)c3)cc21 [Example 277],–,3.6
N#C[C@H](Cc1ccc(N2CCN3CCOC[C@H]3C2)cc1F)NC(=O)[C@H]1N[C@@H]2CC[C@H]1C2 [Example 250],–,11.5
CN1CCN(S(=O)(=O)c2ccc(-c3ccc(C[C@@H](C#N)NC(=O)[C@H]4N[C@@H]5CC[C@H]4C5)c(F)c3)cc2)CC1 [Example 155],–,0.5
N#C[C@H](Cc1ccc(N2CCN(CC3CCCO3)CC2)cc1F)NC(=O)[C@H]1N[C@@H]2CC[C@H]1C2 (some centres unmarked) [Example 154],–,4.6
CN(C)CC1CCCN(c2ccc(C[C@@H](C#N)NC(=O)[C@H]3N[C@@H]4CC[C@H]3C4)c(F)c2)C1 (some centres unmarked) [Example 345],–,6.9
CN(C)CCN1C(=O)Cc2ccc(-c3ccc(C[C@@H](C#N)NC(=O)[C@H]4N[C@@H]5CC[C@H]4C5)c(F)c3)cc21 [Example 278],–,1
CN1CC2CCC(C1)N2c1ccc(C[C@@H](C#N)NC(=O)[C@H]2N[C@@H]3CC[C@H]2C3)c(F)c1 [Example 328],–,1.2
CN1CCc2cc(-c3ccc(C[C@@H](C#N)NC(=O)[C@H]4N[C@@H]5CC[C@H]4C5)c(F)c3)ccc2C1=O [Example 42],–,8.3
CN(C)CCN1C(=O)Cc2cc(-c3ccc(C[C@@H](C#N)NC(=O)[C@H]4N[C@@H]5CC[C@H]4C5)c(F)c3)ccc21 [Example 279],–,1.9
CN(C)CCn1cc(-c2ccc(C[C@@H](C#N)NC(=O)[C@H]3N[C@@H]4CC[C@H]3C4)c(F)c2)ccc1=O [Example 342],–,24.7
CCN1CC=C(c2ccc(C[C@@H](C#N)NC(=O)[C@H]3N[C@@H]4CC[C@H]3C4)c(F)c2)CC1 [Example 320],–,3.7
N#C[C@H](Cc1ccc(N2CCN3CCOC[C@@H]3C2)cc1F)NC(=O)[C@H]1N[C@@H]2CC[C@H]1C2 [Example 249],–,16.5
"N#C[C@H](Cc1ccc(-c2ccc3c(c2)COC3=O)cc1F)NC(=O)[C@H]1N[C@@H]2CC[C@H]1C2 [Example 3, (1S,2S,4R)—N-[(1S)-1-cyano-2-[2-fluoro-4-(1-oxo-3H-isobenzofuran-5-yl)phenyl]ethyl]-3-azabicyclo[2.2.1]heptane-2-carboxamide]",–,2.9
CCN1CCN(c2ccc(C[C@@H](C#N)NC(=O)[C@H]3N[C@@H]4CC[C@H]3C4)c(F)c2)CC1 [Example 272],–,2.4
CN1CCCN(S(=O)(=O)c2ccc(-c3ccc(C[C@@H](C#N)NC(=O)[C@H]4N[C@@H]5CC[C@H]4C5)c(F)c3)cc2)CC1 [Example 340],–,0.8
N#C[C@H](Cc1ccc([C@@H]2CCN3CCOC[C@H]3C2)cc1F)NC(=O)[C@H]1N[C@@H]2CC[C@H]1C2 [Example 283],–,4.5
COCCN1CCN(c2ccc(C[C@@H](C#N)NC(=O)[C@H]3N[C@@H]4CC[C@H]3C4)c(F)c2)CC1C (some centres unmarked) [Example 178],–,3.6

SMILES,In vitro stability in human liver microsome incubations t½ [1] [h],IC50 [2] [nM]
CN1CC=C(c2ccc(C[C@@H](C#N)NC(=O)[C@H]3N[C@@H]4CC[C@H]3C4)c(F)c2)CC1 [Example 223],–,3
N#C[C@H](Cc1ccc(-c2csc(C(=O)N3CCN4CCOCC4C3)c2)cc1F)NC(=O)[C@H]1N[C@@H]2CC[C@H]1C2 (some centres unmarked) [Example 234],–,6.9
CN1CCC2(C=C(c3ccc(C[C@@H](C#N)NC(=O)[C@H]4N[C@@H]5CC[C@H]4C5)c(F)c3)C2)CC1 [Example 359],–,2.9
C[C@H]1CN(C)CCN1c1ccc(C[C@@H](C#N)NC(=O)[C@H]2N[C@@H]3CC[C@H]2C3)c(F)c1 [Example 188],–,4.4
CN1CCN(C(=O)c2coc(-c3ccc(C[C@@H](C#N)NC(=O)[C@H]4N[C@@H]5CC[C@H]4C5)c(F)c3)c2)CC1 [Example 241],–,5.3
N#CC(Cc1cc2c(=O)[nH]c3ccc(F)cc3c2cc1F)NC(=O)[C@H]1N[C@@H]2CC[C@H]1C2 (some centres unmarked) [Example 295],–,8.6
CN1CCC(N2C(=O)Cc3ccc(-c4ccc(C[C@@H](C#N)NC(=O)[C@H]5N[C@@H]6CC[C@H]5C6)c(F)c4)cc32)CC1 [Example 346],–,6.8
CN1CCCN(c2ccc(C[C@@H](C#N)NC(=O)[C@H]3N[C@@H]4CC[C@H]3C4)c(F)c2)CC1 [Example 247],–,8
N#C[C@H](Cc1ccc([C@H]2CCN3CCOC[C@H]3C2)cc1F)NC(=O)[C@H]1N[C@@H]2CC[C@H]1C2 [Example 284],–,5.3
N#C[C@H](Cc1cc2c(=O)[nH]c3c(F)c(F)ccc3c2cc1F)NC(=O)[C@H]1N[C@@H]2CC[C@H]1C2 [Example 324],–,1.3
"CN1CCC(Oc2ccc(C[C@@H](C#N)NC(=O)[C@H]3N[C@@H]4CC[C@H]3C4)c(F)c2)CC1 [Example 319, (1S,2S,4R)—N-[(1S)-1-cyano-2-[2-fluoro-4-[(1-methyl-4-piperidyl)oxy]phenyl]ethyl]-3-azabicyclo[2.2.1]heptane-2-carboxamide]",–,9.3
N#C[C@H](Cc1ccc(C2=CC3COCCN3CC2)cc1F)NC(=O)[C@H]1N[C@@H]2CC[C@H]1C2 (some centres unmarked) [Example 282],–,3.4
N#C[C@H](Cc1ccc(-c2csc(C(=O)N3CCn4nccc4C3)c2)cc1F)NC(=O)[C@H]1N[C@@H]2CC[C@H]1C2 [Example 226],–,1.8
N#CC(Cc1cc2c(=O)[nH]c3cc(F)ccc3c2cc1F)NC(=O)[C@H]1N[C@@H]2CC[C@H]1C2 (some centres unmarked) [Example 293],–,4.6
N#C[C@H](Cc1ccc(N2CCN3CCOCC3C2)cc1F)NC(=O)[C@H]1N[C@@H]2CC[C@H]1C2 (some centres unmarked) [Example 43],–,9.2
N#C[C@H](Cc1ccc(-c2ccc(S(=O)(=O)N3CCOCC3)cc2)cc1F)NC(=O)[C@H]1N[C@@H]2CC[C@H]1C2 [Example 217],–,7.5
COCCN1C(C)CN(c2ccc(C[C@@H](C#N)NC(=O)[C@H]3N[C@@H]4CC[C@H]3C4)c(F)c2)CC1C (some centres unmarked) [Example 191],–,3.3
COCCN1CCN(c2ccc(C[C@@H](C#N)NC(=O)[C@H]3N[C@@H]4CC[C@H]3C4)c(F)c2)CC1 [Example 182],–,8.1
N#Cc1cc(F)c2[nH]c(=O)c3cc(C[C@@H](C#N)NC(=O)[C@H]4N[C@@H]5CC[C@H]4C5)c(F)cc3c2c1 [Example 325],–,4.7
N#CC(Cc1cc2c(=O)[nH]c3ccccc3c2cc1F)NC(=O)[C@H]1N[C@@H]2CC[C@H]1C2 (some centres unmarked) [Example 294],–,7.8
CC1(C)OC(=O)c2ccc(-c3ccc(C[C@@H](C#N)NC(=O)[C@H]4N[C@@H]5CC[C@H]4C5)c(F)c3)cc21 [Example 156],–,2.3
N#C[C@H](Cc1ccc(-c2ccc(S(=O)(=O)N3CCCCC3)cc2)cc1F)NC(=O)[C@H]1N[C@@H]2CC[C@H]1C2 [Example 177],–,9.2
